{
  "source": "patent US20240148709A1",
  "about": "“METHODS OF TREATING EYE PAIN AND EYE DISORDERS” (Aisa Pharma, Inc., priority 2022, published 2024)",
  "key": {"[1]": {"test_system": "participants with SSc-RP", "test": "Raynaud's attack diary endpoints (frequency, duration, severity, pain, RCS), Phase 2a study Part A", "type": "in vivo, human", "method": "Part A—double-blind, placebo-controlled, parallel-group, dose selection, will assess the safety and efficacy of two doses of cilnidipine (10 mg and 20 mg), alone and in combination with tadalafil. A total of 36 participants will be randomized to one of six prespecified treatment arms. Refer to FIG. 1 for treatment arms in Part A of the study. Dosing last for 12 (±2) days in which participants will self-administer daily doses of assigned treatment in the morning. Each participant will take one capsule and one tablet to blind the active therapy being received.\nDuring screening, the Diary will collect the following data to confirm eligibility and serve as the baseline measure for efficacy endpoints should the participant be randomized: • Number of daily Raynaud's attacks • Duration of each attack • Symptoms of each attack, including numbness, pain, tingling, color changes • Severity of each attack (all symptoms of the attack to be considered including tingling, numbness, pain, color changes) • Location of participant during each attack (inside/outside) • Pain score of each attack-using 11-point Likert scale, a validated pain scale which can be used to record intensity of pain. • Daily RCS— a validated outcome measure used to assess the level of difficulty experienced due to RP each day.\nThe relevant metrics measured by this tool daily are: • Study medication • SSc-RP symptoms (Reporting an attack including duration of attack) • Severity of the attack considering all symptoms of the attack e.g. tingling, numbness, pain, color changes (VAS 0-10 cm scale) • Participant's location at the time of the attack (inside home/outside home) • Selecting symptoms experienced during the attack (tingling, numbness, pain, color changes, other) • Pain rating during the attack (11-point Likert scale) • The RCS based on how much difficulty participants had with Raynaud's today, how many attacks the participant had, and how long they lasted. Participants will also be asked to consider how much pain, numbness, or other symptoms the Raynaud's caused in fingers (including painful sores), and how much the Raynaud's alone affected the use of hands today (VAS 0-10 cm scale).\nPercent change from baseline evaluation for frequency of weekly RP attacks will be the primary efficacy endpoint. Data collected in the last 7 days of each dosing period will be used for this analysis. Screening assessments will be used as baseline for the analysis of all periods. No multiple comparison adjustment will be used to control alpha for the multiple comparisons. Mixed effects model will be used for analysis of the primary endpoint according to the crossover design. Other efficacy endpoints of continuous variables will be analyzed using similar methodology. For nominal data, chi-square tests will be applied. Generalized Estimating Equations method will be used, as appropriate, for adjusting for potential confounding factors. In addition, the final analysis will assess whether in this study of severe Raynaud's disease participants, the minimally important difference, previously concluded of 14-15 points on the 100 point RCS scale has been achieved in the cilnidipine dose group. It also will record the percentage of participants achieving a PASS (34 point difference from baseline on a 0-100 VAS) in each treatment group."}, "[2]": {"test_system": "participants with SSc-RP", "test": "Safety: adverse events and withdrawals, Phase 2a study Part A", "type": "in vivo", "details": "for overall adverse event rate: all patients who received any dose of cilnidipine (n=17)", "source_text": "• Incidence of treatment emergent adverse events (AEs) and serious adverse events (SAEs), including clinically significant vital signs. For Part A safety will be assessed from the time of randomization until 7 days following the last protocol dose. For Part B, participants will be followed for 28 days from the last study dose. • Serious adverse events will be monitored by a DSMB (Part A) and Drug Safety Officer (Part B) on an ongoing basis throughout the study. • Adverse events will be coded using the MedDRA and summarized by SOC, PT, and treatment group.\nSeverity of AEs will be graded by the Investigator as one of: • Mild (Grade 1): A type of AE that is usually transient and may require only minimal treatment or therapeutic intervention.\nAdverse events will be coded using the most current version of the MedDRA® Version 22.0 or higher. The analysis of AEs will be based on the concept of treatment emergent AEs. Treatment emergent AEs will be tabulated by treatment group and will include the number of participants for whom the event occurred, the severity, and relationship to study drug. Treatment emergent AEs (TEAEs) leading to discontinuation and SAEs with onset after the start of study drug will also be summarized. All AEs and SAEs (including those with onset or worsening before the start of study drug) through the end of the study will be listed."}, "[3]": {"details": "10 mg cilnidipine, healthy volunteers, single oral dose, cited from earlier work"}, "[4]": {"target": "Nav 1.7 sodium channel (Homo sapiens, UniProt Q15858)", "sequence (Q15858 whole entry)": "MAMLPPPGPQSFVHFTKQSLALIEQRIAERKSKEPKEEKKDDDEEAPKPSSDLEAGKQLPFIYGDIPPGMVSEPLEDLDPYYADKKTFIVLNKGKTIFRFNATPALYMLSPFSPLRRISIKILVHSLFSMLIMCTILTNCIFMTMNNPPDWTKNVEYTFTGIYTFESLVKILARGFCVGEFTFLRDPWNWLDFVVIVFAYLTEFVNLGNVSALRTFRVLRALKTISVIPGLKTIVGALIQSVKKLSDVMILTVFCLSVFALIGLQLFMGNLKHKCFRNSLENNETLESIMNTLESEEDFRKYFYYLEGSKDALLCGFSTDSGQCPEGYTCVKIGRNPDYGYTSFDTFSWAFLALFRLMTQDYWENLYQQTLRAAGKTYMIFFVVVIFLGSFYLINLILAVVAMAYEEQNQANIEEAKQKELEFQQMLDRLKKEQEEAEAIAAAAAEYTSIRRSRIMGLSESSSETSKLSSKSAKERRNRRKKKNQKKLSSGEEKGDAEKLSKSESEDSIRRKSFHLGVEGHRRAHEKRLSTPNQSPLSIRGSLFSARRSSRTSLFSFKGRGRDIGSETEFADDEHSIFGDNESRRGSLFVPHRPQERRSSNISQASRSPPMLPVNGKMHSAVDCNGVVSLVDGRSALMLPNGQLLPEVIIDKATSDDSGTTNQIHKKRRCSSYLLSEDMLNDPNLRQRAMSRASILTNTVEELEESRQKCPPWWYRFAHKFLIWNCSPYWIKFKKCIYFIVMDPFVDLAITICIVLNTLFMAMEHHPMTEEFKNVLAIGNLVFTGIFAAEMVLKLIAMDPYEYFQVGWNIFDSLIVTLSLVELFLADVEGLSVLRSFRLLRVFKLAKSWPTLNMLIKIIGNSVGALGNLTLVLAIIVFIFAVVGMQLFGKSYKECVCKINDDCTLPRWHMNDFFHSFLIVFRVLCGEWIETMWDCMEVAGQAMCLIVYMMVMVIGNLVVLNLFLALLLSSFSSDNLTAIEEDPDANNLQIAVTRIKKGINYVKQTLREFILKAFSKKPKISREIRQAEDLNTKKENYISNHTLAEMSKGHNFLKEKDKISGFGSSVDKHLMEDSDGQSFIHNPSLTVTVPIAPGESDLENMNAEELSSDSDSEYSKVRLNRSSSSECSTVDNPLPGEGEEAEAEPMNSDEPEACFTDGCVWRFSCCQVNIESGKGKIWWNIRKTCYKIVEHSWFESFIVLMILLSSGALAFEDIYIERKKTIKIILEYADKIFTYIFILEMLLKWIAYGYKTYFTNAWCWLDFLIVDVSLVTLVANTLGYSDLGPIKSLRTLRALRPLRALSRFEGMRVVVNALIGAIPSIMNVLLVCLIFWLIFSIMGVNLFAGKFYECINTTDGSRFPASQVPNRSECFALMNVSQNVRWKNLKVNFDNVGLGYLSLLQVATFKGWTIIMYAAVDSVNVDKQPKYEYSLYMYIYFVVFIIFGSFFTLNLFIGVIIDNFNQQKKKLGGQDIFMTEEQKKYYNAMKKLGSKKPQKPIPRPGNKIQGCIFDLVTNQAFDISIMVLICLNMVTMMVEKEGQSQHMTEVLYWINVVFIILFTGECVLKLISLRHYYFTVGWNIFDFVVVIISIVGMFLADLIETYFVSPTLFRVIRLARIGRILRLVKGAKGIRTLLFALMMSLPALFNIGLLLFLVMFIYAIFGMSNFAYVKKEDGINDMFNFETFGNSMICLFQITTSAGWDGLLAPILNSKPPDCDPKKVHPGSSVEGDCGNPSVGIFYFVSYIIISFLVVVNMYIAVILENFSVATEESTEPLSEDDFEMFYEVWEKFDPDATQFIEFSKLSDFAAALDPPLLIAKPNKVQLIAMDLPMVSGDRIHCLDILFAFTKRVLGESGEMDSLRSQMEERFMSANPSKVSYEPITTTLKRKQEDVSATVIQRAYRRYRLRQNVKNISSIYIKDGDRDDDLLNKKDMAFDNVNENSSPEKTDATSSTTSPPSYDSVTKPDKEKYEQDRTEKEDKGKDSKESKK", "details": "20 mg dose of cilnidipine; cited from earlier work"}, "[5]": {"details": "given orally; cited from earlier work"}, "[6]": {"details": "oral dosing; cited from earlier work"}, "[7]": {"details": "cilnidipine 10 mg and/or tadalafil 5 mg arms"}, "[8]": {"details": "cilnidipine 20 mg arms (alone or + tadalafil 5 mg)"}},
  "note": "“Also recorded” adds a separate entry of the source. Marks after values point to notes of the source that are not given here.",
  "data": [
    {"molecule": "CN1CC(=O)N2[C@H](c3ccc4c(c3)OCO4)c3[nH]c4ccccc4c3C[C@@H]2C1=O", "note": "[Tadalafil, tadalafil]", "values": [
      {"measurement": "Average Pain Score Change From Baseline [Mean (SD)]", "setting": "[1]; [7]", "result": "0.37 (2.219)"},
      {"measurement": "Average Pain Score Percent Change from Baseline [Mean (SD)]", "setting": "[1]; [7]", "result": "17.20 (64.838) %"},
      {"measurement": "Average Pain Score [Mean (SD)] after treatment (Raynaud's pain)", "setting": "[1]; [7]", "result": "5.84 (4.768)"}
    ]},
    {"molecule": "COCCOC(=O)C1=C(C)NC(C)=C(C(=O)OC/C=C/c2ccccc2)C1c1cccc([N+](=O)[O-])c1", "note": "(stereo not shown) [Cilnidipine, cilnidipine]", "values": [
      {"measurement": "Subgroup Baseline RCS <3.5, % change", "setting": "[1]; Cilnidipine 20 mg (n = 1)", "result": "baseline −42%"},
      {"measurement": "Subgroup Baseline RCS >3.5-7.5, % change", "setting": "[1]; Cilnidipine 20 mg (n = 2)", "result": "baseline −43%"},
      {"measurement": "Subgroup attack frequency, <10 baseline, % change", "setting": "[1]; Cilnidipine 20 mg (n = 2)", "result": "baseline −29%"},
      {"measurement": "Subgroup attack frequency, >10 baseline, % change", "setting": "[1]; Cilnidipine 20 mg (n = 2)", "result": "baseline −50%"},
      {"measurement": "Average Raynaud's Pain, % change", "setting": "[1]; Cilnidipine 20 mg (n = 3)", "result": 12, "unit": "%"},
      {"measurement": "Daily RCS Change", "setting": "[1]; Cilnidipine 20 mg (n = 3)", "result": "−28", "unit": "%"},
      {"measurement": "Duration, % change", "setting": "[1]; Cilnidipine 20 mg (n = 3)", "result": "−20", "unit": "%"},
      {"measurement": "Mean % reduction in RCS", "setting": "[1]; Cilnidipine 20 mg (n = 3)", "result": 27.9, "unit": "%"},
      {"measurement": "Mean % reduction in duration", "setting": "[1]; Cilnidipine 20 mg (n = 3)", "result": 20.0, "unit": "%"},
      {"measurement": "Mean % reduction in pain", "setting": "[1]; Cilnidipine 20 mg (n = 3)", "result": "−11.8", "unit": "%"},
      {"measurement": "Mean % reduction in severity", "setting": "[1]; Cilnidipine 20 mg (n = 3)", "result": 35.5, "unit": "%"},
      {"measurement": "Mean % reduction of weekly attacks", "setting": "[1]; Cilnidipine 20 mg (n = 3)", "result": 43, "unit": "%"},
      {"measurement": "Severity, % change", "setting": "[1]; Cilnidipine 20 mg (n = 3)", "result": "−36", "unit": "%"},
      {"measurement": "Weekly attack frequency, % change", "setting": "[1]; Cilnidipine 20 mg (n = 3)", "result": "−43", "unit": "%"},
      {"measurement": "Weekly attack frequency, % change, if baseline RCS <3.5", "setting": "[1]; Cilnidipine 20 mg (n = 3)", "result": "−42", "unit": "%"},
      {"measurement": "Subgroup Baseline RCS 3.5-7.5, % change", "setting": "[1]; Pooled Cilnidipine (n = 1)", "result": "baseline −86%"},
      {"measurement": "Subgroup attack frequency, <10 baseline, % change", "setting": "[1]; Pooled Cilnidipine (n = 2)", "result": "baseline −55%"},
      {"measurement": "Subgroup attack frequency, >10 baseline, % change", "setting": "[1]; Pooled Cilnidipine (n = 2)", "result": "baseline −28%"},
      {"measurement": "Daily RCS Change", "setting": "[1]; Pooled Cilnidipine (n = 3)", "result": "12% (n = 3)"},
      {"measurement": "Subgroup Baseline RCS <3.5, % change", "setting": "[1]; Pooled Cilnidipine (n = 3)", "result": "baseline −27%"},
      {"measurement": "Average Raynaud's Pain, % change", "setting": "[1]; Pooled Cilnidipine (n = 7)", "result": "−27", "unit": "%"},
      {"measurement": "Duration, % change", "setting": "[1]; Pooled Cilnidipine (n = 7)", "result": 20, "unit": "%"},
      {"measurement": "Severity, % change", "setting": "[1]; Pooled Cilnidipine (n = 7)", "result": "−16", "unit": "%"},
      {"measurement": "Weekly attack frequency, % change", "setting": "[1]; Pooled Cilnidipine (n = 7)", "result": "−41", "unit": "%"},
      {"measurement": "Weekly attack frequency, % change, if baseline RCS <3.5", "setting": "[1]; Pooled Cilnidipine (n = 7)", "result": "−27", "unit": "%"},
      {"measurement": "DSMB finding on Raynaud's endpoints", "setting": "[1]; both doses (10 and 20 mg)", "result": "effective at reducing Raynaud's endpoints"},
      {"measurement": "Average Pain Score Change From Baseline [Mean (SD)]", "setting": "[1]; [7]", "result": "0.47 (0.558)"},
      {"measurement": "Average Pain Score Percent Change from Baseline [Mean (SD)]", "setting": "[1]; [7]", "result": "11.76 (27.478)† %"},
      {"measurement": "Average Pain Score [Mean (SD)] after treatment (Raynaud's pain)", "setting": "[1]; [7]", "result": "2.82 (2.268)"},
      {"measurement": "Average Pain Score Change From Baseline [Mean (SD)]", "setting": "[1]; [8]", "result": "−0.47 (2.025)"},
      {"measurement": "Average Pain Score Percent Change from Baseline [Mean (SD)]", "setting": "[1]; [8]", "result": "−26.89 (89.725)* %"},
      {"measurement": "Average Pain Score [Mean (SD)] after treatment (Raynaud's pain)", "setting": "[1]; [8]", "result": "1.28 (1.993)"},
      {"measurement": "tolerability", "setting": "[2]; 10 mg and 20 mg, alone or in combination with tadalafil", "result": "well tolerated; also recorded: good tolerability"},
      {"measurement": "Safety: withdrawals", "setting": "[2]; Cilnidipine 20 mg column (n = 8)", "result": 1, "unit": "withdrawal"},
      {"measurement": "Safety: number of AE", "setting": "[2]; Cilnidipine 20 mg, HA-mild (n = 8)", "result": "1AE (HA-mild;"},
      {"measurement": "Safety: number of AE", "setting": "[2]; Pooled Cilnidipine, in combo with T (n = 9)", "result": "1AE (in combo"},
      {"measurement": "overall adverse event rate", "setting": "[2]", "result": 17, "unit": "%"},
      {"measurement": "overall adverse event rate", "setting": "[2]; listed as Profervia", "result": 17, "unit": "% adverse"},
      {"measurement": "treatment discontinuations due to intolerance", "setting": "[2]; any dose of cilnidipine (n=17)", "result": "no treatment discontinuations due to intolerance"},
      {"measurement": "severity grade of adverse events", "setting": "[2]; patients treated with cilnidipine", "result": "only Grade 1 Adverse Events (AEs) were reported; also recorded: only mild (Grade 1) adverse events occurred"},
      {"measurement": "AUCinf", "setting": "[3]; mean (±SD)", "result": "41.2 (±20.4) ng*h/mL"},
      {"measurement": "AUClast", "setting": "[3]; mean (±SD)", "result": "37.0 (±17.9) ng*hr/mL"},
      {"measurement": "CL/F", "setting": "[3]; mean (±SD)", "result": "304.7(±147.5) L/hr"},
      {"measurement": "Cmax", "setting": "[3]; mean (±SD)", "result": "8.9 (±4.2) ng/mL"},
      {"measurement": "T1/2", "setting": "[3]; mean (±SD)", "result": "7.5(±1.0) hr"},
      {"measurement": "Tmax", "setting": "[3]; median (minimum-maximum)", "result": "2 (0.5-5) hr"},
      {"measurement": "inhibition of Nav 1.7 compared to an 1800 mg dose of gabapentin", "setting": "[4]", "result": "> 6", "unit": "fold"},
      {"measurement": "protein binding in plasma", "setting": "[5]", "result": 98, "unit": "%"},
      {"measurement": "time to achieve maximal plasma concentration (Tmax)", "setting": "[6]", "result": "≤ 2", "unit": "h"}
    ]}
  ]
}
